Assay results from patent US12428447B2, “Peptide-based non-proteinaceous cargo delivery” (priority 2019, dated 2025).
Bridges are numbered along the chain shown (N, C = ends). Where no end group is shown, it is not given here. [ ]: non-standard residue; d: D form.

How the values were obtained:
[1] = system: HeLa cells; experiment: Propidium iodide (PI) transduction in HeLa cells, flow cytometry; assay type: cell-based, Human; conditions: for delivery / transduction of PI: shuttle or control peptide 10 μM, PI 10 μg/mL, 1 minute, 2 hours after delivery
Experimental: HeLa cells were plated (20 000 cells/well) in a 96 well-dish the day prior the experiment. Each delivery mix comprising a synthetic peptide shuttle agent (10 μM) and the propidium iodide (PI) (10 μg/mL) or the GFP-NLS (10 μM) were prepared and completed to 50 μL with phosphate-buffered saline (PBS). Cells were washed once with PBS and the Shuttle/PI or Shuttle/GFP-NLS added on cells for one minute. Then 100 μL DMEM containing 10% FBS was added to the mix and removed. Cells were washed once with PBS and incubated in DMEM containing 10% FBS. Cells were analyzed after 2-hour incubation by flow cytometry. For the condition “FS then PI”, only the synthetic peptide shuttle agent (10 μM) was added on HeLa cells for 1 minute and one hour later PI (10 μg/mL) was added for one minute following the same washing step. Cells were analyzed one hour after PI or GFP-NLS treatment.
HeLa cells were cultured as described in Example 1.3 and subjected to the PI transduction protocol as described in Example 1.4, with the proteinaceous cargo GFP-NLS being transduced separately as a control in some experiments. Results were acquired by flow cytometry two hours after delivery and expressed as percentages of fluorescent cells (% PI+ cells or % GFP+ cells), as shown in FIGS. 1A-1D and as summarized in the table shown in FIG. 2.
To evaluate the suitability of PI as a “surrogate” cargo for novel shuttle agents, a proprietary library of over 300 candidate peptide shuttle agents was screened in parallel for both PI and GFP-NLS transduction activity in HeLa cells using flow cytometry as generally described in Example 1.4. Aside from the concentrations of the cargoes (i.e., 10 μg/mL for PI vs 10 μM for GFP-NLS), the transduction protocols were otherwise the same.
Due to the large number of peptides screened, negative controls were performed in parallel for each experimental batch and included a “no treatment” (NT) control in which the cells were not exposed to shuttle peptide or cargo, as well as a “cargo alone” control in which cells were exposed to the cargo in the absence of shuttle agent. Results are shown in FIGS. 6 and 7, in which “transduction efficiency” refers to the percentage of all viable cells that are positive for the cargo (PI or GFP-NLS). “Mean Delivery score” provides a further indication of the total amount of cargo that was delivered per cell, amongst all cargo-positive cells. Mean PI or GFP-NLS delivery score was calculated by multiplying the mean fluorescence intensity (of at least duplicate samples) measured for the viable PI+ or GFP+ cells by the mean percentage of viable PI+ or GFP+ cells, divided by 100,000 for GFP delivery or by 10,000 for PI delivery. […]

[2] = system: HedgeHog signalling pathway; experiment: Hedgehog pathway inhibitor delivery to Gli-luciferase reporter NIH3T3 cells (luminescence); assay type: cell-based, Mouse; conditions: for Mean luminescence intensity: inhibitor 100 μM, 90 seconds, mShh-stimulated reporter cells; for cellular luminescence intensity in the presence of FSD250D as compared to in the absence of FSD250D: +mShh, inhibitor transduced by FSD250D
Experimental: Stock solutions of cargoes were prepared as follows: Gant61 stock (20 mM in DMSO); HPI4 stock (40 mM in DMSO); Itraconazole stock (4.8 mM (4 mg/mL) in DMSO); Arsenic trioxide (ATO) stock (40 mM in H2O). Peptide shuttle agent (5 μM) and Hedgehog pathway inhibitor (100 μM) were mixed and volume was completed to 50 μL with PBS.
Hedgehog signaling pathway Gli Reporter NIH 3T3 cells were cultured in DMEM containing 10% calf serum. Cells were trypsinized, centrifuged and resuspended at 10 million cells/mL in PBS. 50 μL of cells (500 000 cells/well) were distributed in a round bottom non-treated 96-well plate. Resuspended cells were mixed with a delivery mix containing the peptide shuttle agent (5 μM) and Hedgehog pathway inhibitor (100 μM). Cells were incubated 90 seconds with the delivery mix at room temperature, 200 μL of DMEM containing 10% calf serum (200 μL) was added in each well, and cells were centrifuged (400 g, 4 min.) and washed with 200 μL of PBS. Cells were then resuspended in 200 μL of DMEM and then transferred to a well of a 6-well plate containing 1 mL of DMEM containing 10% calf serum and incubated at 37° C. for 2 hours. The media was gently removed and 1 ml of either control media (Opti-MEM™) or activating media (Opti-MEM with 5 μg/mL mShh) was added to each well. Cells were incubated at 37° C. for 24-30 hours.
For analyses, cells were trypsinized and resuspended in each well with 200 μL of Opti-MEM™, and then split equally to two wells of a round bottom 96-well plate. Viability was assessed using flow cytometry analysis and ONE-Step Luciferase assay was used to measure luminescence following manufacturer's instructions.
Briefly, the NIH3T3 Gli-luciferase reporter cell line is designed to monitor the activity of the HedgeHog signaling pathway and contains the firefly luciferase gene under the control of Gli responsive elements stably integrated into NIH3T3 cells. As shown in FIG. 3 and Table 1, exposure of the NIH3T3 Gli-luciferase reporter cells to recombinant mouse Sonic HedgeHog protein as a positive control (“Ctrl+mShh”) results in an increase in luminescence intensity that is not observed in the negative control cells which were not exposed to mShh (“Ctrl−mShh”).

[3] = molecular target: T1, sodium channel Nav1.7 (Homo sapiens, UniProt Q15858); experiment: QX-314 delivery, whole-cell patch-clamp of HEK293 cells stably expressing Nav1.7; assay type: cell-based
T1 construct: expressed in transfected cells
T1 sequence (Q15858 whole entry): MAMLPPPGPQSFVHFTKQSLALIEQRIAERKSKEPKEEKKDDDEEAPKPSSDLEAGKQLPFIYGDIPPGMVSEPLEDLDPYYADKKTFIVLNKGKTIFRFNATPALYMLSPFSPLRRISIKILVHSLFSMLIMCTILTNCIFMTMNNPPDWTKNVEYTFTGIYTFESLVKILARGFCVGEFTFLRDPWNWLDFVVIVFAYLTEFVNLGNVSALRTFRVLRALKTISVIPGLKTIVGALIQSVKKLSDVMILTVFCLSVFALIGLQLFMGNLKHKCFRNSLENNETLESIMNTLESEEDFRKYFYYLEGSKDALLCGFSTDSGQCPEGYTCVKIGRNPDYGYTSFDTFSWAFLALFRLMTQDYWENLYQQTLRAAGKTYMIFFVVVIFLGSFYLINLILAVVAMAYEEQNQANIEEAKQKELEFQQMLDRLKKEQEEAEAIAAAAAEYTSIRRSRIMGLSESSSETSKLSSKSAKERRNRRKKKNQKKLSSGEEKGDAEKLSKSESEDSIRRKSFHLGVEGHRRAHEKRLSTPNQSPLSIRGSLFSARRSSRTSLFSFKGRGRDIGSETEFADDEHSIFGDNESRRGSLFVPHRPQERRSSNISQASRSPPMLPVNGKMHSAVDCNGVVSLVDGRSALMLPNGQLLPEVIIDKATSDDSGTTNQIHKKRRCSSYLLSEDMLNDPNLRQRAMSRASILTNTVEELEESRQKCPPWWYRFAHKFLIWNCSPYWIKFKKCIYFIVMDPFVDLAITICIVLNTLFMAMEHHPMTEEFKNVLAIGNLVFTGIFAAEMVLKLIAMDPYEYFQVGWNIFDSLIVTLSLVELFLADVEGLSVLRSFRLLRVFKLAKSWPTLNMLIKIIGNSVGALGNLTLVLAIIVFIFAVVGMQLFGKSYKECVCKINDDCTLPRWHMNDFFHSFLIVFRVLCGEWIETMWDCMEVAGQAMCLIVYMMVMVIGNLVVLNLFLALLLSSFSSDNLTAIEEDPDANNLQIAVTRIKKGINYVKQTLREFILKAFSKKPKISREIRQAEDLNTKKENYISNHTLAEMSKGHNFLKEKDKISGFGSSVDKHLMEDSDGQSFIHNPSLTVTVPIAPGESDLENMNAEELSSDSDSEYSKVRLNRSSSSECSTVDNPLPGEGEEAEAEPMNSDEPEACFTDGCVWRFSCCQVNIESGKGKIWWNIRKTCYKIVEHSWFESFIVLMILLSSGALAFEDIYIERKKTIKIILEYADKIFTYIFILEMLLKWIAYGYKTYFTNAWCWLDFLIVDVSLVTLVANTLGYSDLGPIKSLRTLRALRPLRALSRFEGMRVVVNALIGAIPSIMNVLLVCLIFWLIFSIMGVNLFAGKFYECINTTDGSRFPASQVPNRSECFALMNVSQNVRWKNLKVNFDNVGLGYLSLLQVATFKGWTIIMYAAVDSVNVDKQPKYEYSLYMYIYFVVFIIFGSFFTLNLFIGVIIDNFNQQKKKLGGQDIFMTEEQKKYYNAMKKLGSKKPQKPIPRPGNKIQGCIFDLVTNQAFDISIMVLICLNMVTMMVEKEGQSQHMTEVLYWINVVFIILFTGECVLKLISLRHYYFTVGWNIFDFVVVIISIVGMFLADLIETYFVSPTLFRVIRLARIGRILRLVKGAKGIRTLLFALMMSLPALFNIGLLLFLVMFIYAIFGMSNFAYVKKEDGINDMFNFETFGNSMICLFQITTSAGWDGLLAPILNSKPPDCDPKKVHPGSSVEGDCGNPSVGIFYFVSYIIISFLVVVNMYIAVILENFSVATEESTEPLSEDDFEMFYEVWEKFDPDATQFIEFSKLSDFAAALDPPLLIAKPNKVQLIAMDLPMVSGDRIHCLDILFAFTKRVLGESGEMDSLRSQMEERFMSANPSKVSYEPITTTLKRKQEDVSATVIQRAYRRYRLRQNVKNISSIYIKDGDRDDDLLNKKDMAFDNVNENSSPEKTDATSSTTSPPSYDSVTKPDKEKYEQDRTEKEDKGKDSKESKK
Experimental: Cell culture. HEK293 cells stably expressing Nav1.7 were grown in Dulbecco's minimal essential medium (DMEM, Gibco BRL Life Technologies) supplemented with fetal bovine serum (FBS, 10%), L-glutamine (2 mM), penicillin (100 U/mL), streptomycin ([…]). The cells were incubated at 37° C. in a 5% CO2 humidified atmosphere.
(§1) Delivery. Cells were seeded 24 hours prior to the experiment in 24-well plate. Cells were washed twice with PBS. A solution containing 1 mM of QX-314, 5 μM of FSD194 and 15 μM of GFP-NLS protein was applied to cells for 90 seconds and removed by aspiration. Control was performed using 5 μM of FSD194 or of 2.5 mM QX-314, in presence of GFP-NLS. Cells were washed with 800 μL of DMEM containing 10% FBS and transferred in the recording solution to perform the electrophysiology. GFP-positive cells were determined by microscopy and then selected for patch-clamp analysis.
Electrophysiology. Frequency protocol with QX-314 was recorded within 30 s after the whole-cell configuration was formed. Frequency protocol consists of a pulse of 10 ms at −20 mV from a holding potential of −140 mV at 10 Hz. Whole-cell Na+ currents in HEK293 cells were recorded at room temperature using an Axopatch 200B with the whole-cell configuration of the patch-clamp technique (Molecular Devices). pClamp v10.0 was used for the pulse stimulations and recordings (Molecular Devices). Currents were filtered at 5 kHz, digitized at 100 kHz using a Digidata 1550 AD converter (Molecular devices), and stored on a computer for subsequent analyses. Series resistance was compensated by 70-80%. When needed, linear leak current artifacts were removed using on-line leak subtraction. Fire-polished low-resistance electrodes (2MS2) were pulled from 8161 glass (Corning).
Recording Solutions. Bath solution: 35 mM NaCl, 115 mM NMDG, 2 mM KCl, 1.5 mM CaCl2, 1.0 mM MgCl2, 10 mM glucose, 10 mM HEPES. The pH was adjusted to pH 7.3 with 1 M NaOH. Pipette solution: 35 mM NaCl, 105 mM CsF, 10 mM EGTA, and 10 mM HEPES. The pH was adjusted to pH 7.4 with 1 M CsOH.

[4] = system: HEK293 cells; experiment: GFP-NLS co-transduction in HEK293 cells, microscopy; assay type: cell-based, Human; conditions: 5 μM FSD194+15 μM GFP-NLS, with or without QX-314
Experimental: as §1

[5] = system: HedgeHog pathway; experiment: Hedgehog pathway inhibitor transduction in vivo, depilated mouse hair regrowth; set-up: species or system C57BL6 mice; conditions: 100 μM inhibitor, topical on depilated skin, in the presence of FSD250D vs in its absence, 10 days post-treatment

How did the “delivery / transduction of PI” value [1] turn out when “FSD268 Cyclic Amide: cyclic peptide possessing an amide bond between its C and N termini (KWKLLKLWSRLLKLWGGSGGGSQARAQARQAR; head-to-tail cyclic amide; FSD268 Cyclic Amide; (1)..(32) Cyclic peptide covalent link between K1 and R32)” was run?
The value was “increased the delivery of PI”.

What does the source list for N#C/C(C(=O)c1ccc(Cl)cc1Cl)=C1\NC(=O)c2ccccc2N1 [HPI-4]?
Mean luminescence intensity ([2]; +FSD250D (5 μM)): 1993; cellular luminescence intensity in the presence of FSD250D as compared to in the absence of FSD250D [2]: significantly reduced cellular luminescence intensity; Mean luminescence intensity ([2]; −FSD250D): 6370

How did the “delivery / transduction of PI” value [1] turn out when “FSD268: rationally-designed synthetic peptide shuttle agent (KWKLLKLWSRLLKLWGGSGGGSQARAQARQAR; FSD268)” was run?
Its value is “increased the delivery of PI”.

For Arsenic trioxide [ATO], which Mean luminescence intensity ([2]; +FSD250D (5 μM)) is on record?
The Mean luminescence intensity was 4686.

And the “cellular luminescence intensity in the presence of FSD250D as compared to in the absence of FSD250D” value [2]?
Its value is “significantly reduced cellular luminescence intensity”.

And the Mean luminescence intensity ([2]; −FSD250D)?
The Mean luminescence intensity was 5967.

How did the “delivery / transduction of PI” value [1] turn out when “FSD268 Cyclic Disulfide: cyclic peptide with a disulfide bridge between two flanking cysteines added in N and C terminal positions (CKWKLLKLWSRLLKLWGGSGGGSQARAQARQARC; disulfide 1-34)” was run?
Its value is “increased the delivery of PI”.

Which “effect of shuttle agent alone on luminescence intensity following mShh stimulation” value ([2]; FSD250D together with mShh, no inhibitor, data not shown) does the source give for “FSD250D: same amino acid sequence as FSD250, except that all the amino acids are D-amino acids ([dK][dW][dK][dL][dL][dK][dL][dW][dS][dR][dL][dL][dK][dL][dW]GG[dS]GGG[dS][dA][dR][dA][dA][dR][dQ][dA][dR])” here?
The value was “had no effect on cellular luminescence intensity”.

Which “evoked whole-cell Na+ current amplitude” value ([3]; 15 μM GFP-NLS+5 μM FSD194, without QX-314) does the source give for “FSD194: rationally-designed synthetic peptide shuttle agent (KWKLLKLWSRLLKLWGGSGGGSRRLKAKRAKA; FSD194)” here?
The value was “current amplitude reduction was not observed”.

What about the GFP-NLS-positive cells [4] of the same compound?
Its GFP-NLS-positive cells is “GFP-NLS-positive cells were identified”.

“FSD174 Scramble: negative control peptide, same amino acid composition as FSD174, order changed (LGRSGRIKIGGWSALASRARQARGLKIWTQGRL; FSD174 Scramble)” was tested. Which “PI transduction efficiency relative to "cargo alone" negative control” value ([1]; negative control peptide, data not shown) did it give?
Its value is “lower transduction efficiencies for PI”.

Which Mean luminescence intensity ([2]; +FSD250D (5 μM)) does the source give for CN(C)c1ccccc1CN1CCCN(Cc2ccccc2N(C)C)C1c1ccncc1 [Gant61] here?
Its Mean luminescence intensity is 4216.

And the “cellular luminescence intensity in the presence of FSD250D as compared to in the absence of FSD250D” value [2]?
The value was “significantly reduced cellular luminescence intensity”.

What about the Mean luminescence intensity ([2]; −FSD250D) of the same compound?
The Mean luminescence intensity was 6770.

What about the hair regrowth [5] of the same compound?
Its hair regrowth is “delayed hair regrowth”.

With CCC(C)n1ncn(-c2ccc(N3CCN(c4ccc(OCC5COC(Cn6cncn6)(c6ccc(Cl)cc6Cl)O5)cc4)CC3)cc2)c1=O (stereo not drawn) [Itraconazole] as the compound, how does the Mean luminescence intensity ([2]; +FSD250D (5 μM)) read?
The Mean luminescence intensity was 1519.

What about the Mean luminescence intensity ([2]; −FSD250D) of the same compound?
Its Mean luminescence intensity is 5612.

With CC[N+](CC)(CC)CC(=O)Nc1c(C)cccc1C.[Br-] [QX-314, Lidocaine N-ethyl bromide] as the compound, how does the “evoked whole-cell Na+ current amplitude” value ([3]; 1 mM QX-314+15 μM GFP-NLS+5 μM FSD194, 90 seconds, 10 ms pulse at 10 Hz) read?
Its value is “Reduction of the current amplitude”.

And the “evoked whole-cell Na+ current amplitude” value ([3]; 2.5 mM QX-314+15 μM GFP-NLS, absence of FSD194)?
Its value is “current amplitude reduction was not observed”.
